Consider 2 compounds from patent US5322840A, “Treatment of hyperlipemia and hypertriglyceridemia” (Centre d'Etudes Experimentales et Cliniques de …, priority 1990, dated 1994).

Entries after “also recorded” stand apart in the source; their conditions may differ. Bounds are passed on as bounds.

Data set [1] has as its system normal rats. Put plainly: Normal rats, intraperitoneal administration, plasma lipids. It counts as in vivo, rat. The method, then:
(§1) In normal animals, the fatty acids, triglycerides and cholesterol are determined by automated enzymatic reactions.
The animals are distributed in five lots of five animals each:
[…] receiving 0.1, 0.3, and 3 mg/kg.
The animals are sacrificed two hours after the administration of the Agr 529.

The subject of data set [2] is ACAT (cholesterol-O-acyl transferase). Put plainly: In vitro study on microsomal fraction of liver: ACAT activity. Format: biochemical. The settings on record: 'the same' = no action.
Data set [3] deals with hypertriglyceridemia provoked by Triton WR1339 in Sprague-Dawley rats. Put plainly: Triton-provoked hypertriglyceridemia in rats, per os. Format: in vivo, rat. Conditions: for Triglycerides: Triton controls 7.53 ± 0.49; for triglycerides plasma concentrations: per os in doses of 3 and 30 mg/kg; for triglycerides plasma concentrations / action on the increase in the circulating triglycerides: Triton model; for action on the increase in the circulating triglycerides: per os. The method, then: (§2) Sprague-Dawley male white rats, Iffa Credo, of an average weight of 260-270 g.
(§3) The hypertriglyceridemia is obtained by the intravenous (iv) injection of Triton WR1339 (tyloxapol) in a dose of 600 mg/kg, obtained from the Sigma Chemical Company, N. T 8761 (marginal vein of the ear of the rabbit, jugular vein or vein of the penis of the rat, under slight ether anesthesia, the pentobarbital which attaches itself on the A1 receptors being capable of interacting with the molecules used (Lhose et al., 1985). All the animals used had fasted for 15 hours. The blood was collected over heparin, centrifuged for 20 minutes (3000 rpm at 4° C.). In the serum collected, the TG (triglycerides) are determined in accordance with the GPO-PAP method Boeringher Peridochrom® Kit, item 701-882.
The animals are divided into six lots:
one control-control lot receiving per os isotonic saline solution in a volume of 0.2 ml/100 g of rat 30 minutes before the iv injection of isotonic saline solution.
a Triton control lot receiving per os isotonic saline solution 30 minutes before the iv injection of Triton.
an Agr 529 lot (3 mg/kg in a volume of 0.2 ml/100 g of rat), 30 minutes before the iv injection of Triton.
one lot receiving, under the same conditions, 30 mg/kg of Agr 529 per os.
two lots receiving, under the same conditions as previously, 3 and 30 mg/kg of Agr 540 per os.

The test system is the same in data set [4]. Put plainly: Triton-provoked hypertriglyceridemia in rats, intraperitoneal route. It counts as in vivo, rat. How it is done: as §2, §3
(§4) The animals are divided into two lots:
a control lot (4 animals) receiving isotonic saline solution in a volume of 0.2 ml/100 g of rat by intraperitoneal injection (ip), 20 minutes before the injection of the Triton (iv).
a treated lot (5 animals) receiving 2 mg/kg of Agr 529 ip, under the same conditions as the controls.
Two hours later, the animals are sacrificed by decapitation; the blood is collected by the method previously described, for determination of the triglycerides.

The subject of data set [5] is normal rats. The data set can be described thus: Kinetic study of Agr 529 at 3 mg/kg iv in normal rats. It counts as in vivo, rat. How it is done: as §1
c) Kinetic study of Agr 529 in an amount of 3 mg/kg iv (FIG. V, VI, VII, VIII).

The subject of data set [6] is HMG CoA reductase (β-hydroxy-β-methylglutaryl CoA reductase). Put plainly: In vitro study on microsomal fraction of liver: HMG CoA reductase activity. Format: biochemical.
Data set [7] deals with normal animals. Put plainly: Administration in normal animals, hypolipemia (conclusion, route not stated). It counts as in vivo. The method, then:
as §1

Data set [8] has as its system normal rats. The data set can be described thus: Normal rats, intravenous administration, plasma lipids. Format: in vivo, rat. The method, then: as §1
The animals are distributed into six lots of five animals each:
a control lot receiving the placebo (0.9% isotonic saline solution),
five treated lots receiving 0.03, 0.1, 0.3, 1 and 3 mg/kg of Agr 529 respectively by intravenous injection.
The animals are sacrificed two hours after the injection of the product.

For data set [9], the system named is hypertriglyceridemia provoked by Triton WR1339 in Fauve de Bourgogne rabbits. Put plainly: Triton-provoked hypertriglyceridemia in rabbits, Agr 529 iv. It counts as in vivo, rabbit. How it is done:
Fauve de Bourgogne rabbits of an average weight of 2 kg (EGAV).
as §3, §4
a control lot (6 animals) receiving isotonic saline solution iv in a volume of 0.5 ml/kg two hours before the injection of Triton and the same dose of saline solution as previously.
a treated lot (7 animals) receiving 2 mg/kg of Agr 529 iv in a volume of 0.5 ml/kg two hours before the injection of Triton and a new dose of Agr 529 (2 mg/kg).
A sampling of arterial blood, two hours after the injection of the Triton, permits determination of the triglycerides.

The conditions of data set [10]: report submitted on Agr 529; cited from earlier work.
[11] abbreviates: rats, 30 mg/kg P.O. + Triton 600 mg/kg iv.

For the compound `NC(=O)CCCNc1ncnc2c1ncn2[C@@H]1O[C@H](CO)[C@@H](O)[C@H]1O` [Agr 529, (N6-3-carboxamido-propyl) adenosine], the hyperglycemia result in [1] (0.3 mg/kg intraperitoneal) was “hyperglycemia is no longer found”; in data set [8] (3 mg/kg iv), “hyperglycemia is furthermore noted”. Also, the minimal effective dose in [1] (Rattus norvegicus, ip, 2 h, intraperitoneal, two hours after administration, read-out: dose from which the hypolipemizing effect starts to be significant) is at least 0.3 mg/kg; in data set [8] (Rattus norvegicus, 2 h, iv, doses 0.03-3 mg/kg, two hours after injection, read-out: dose from which the hypolipemizing effect appears) it was at least 0.1 mg/kg. In data set [1] (intraperitoneal administration), the “hypolipemia, dose dependence” value is “hypolipemia as a function of the doses”. For the same compound, the “action on the activity of ACAT” value in data set [2] was “The same is true”. For the same compound, the Triglycerides amounted to 4.87 ± 0.69 mmols/liter in data set [3] (rats, 3 mg/kg P.O. + Triton 600 mg/kg iv); 4.64 ± 0.74 mmols/liter in data set [3] (setting [11]); 2.90 ± 0.26 mmols/liter in [4] (rats n = 5, Agr 529 2 mg/kg ip + Triton 600 mg/kg iv, two hours later, controls 6.32 ± 0.92). For the same compound, the triglycerides plasma concentrations entry in [3] (rats) is “return the triglycerides plasma concentrations to normal”. Moreover, in data set [3] (rats), the “action on the increase in the circulating triglycerides” value was “significantly oppose the increase in the circulating triglycerides”. The “plasma concentration of the circulating triglycerides” value in data set [4] (2 mg/kg intraperitoneally, Triton WR 1339 model) is “normalized the plasma concentration of the circulating triglycerides”; in data set [9] (2 mg/kg intravenously in rabbits, Triton WR 1339 model), “normalized the plasma concentration of the circulating triglycerides”. For the same compound, the “decrease in the quantity of triglycerides in circulation” value in data set [4] (rats, Agr 529 2 mg/kg ip, Triton model, significant (**)) came out at 54%. In addition, the “time after injection at which the hypolipemizing effect starts to appear” value in [5] turned out to be 30 min. Also, in [5], the “time of maximum hypolipemizing effect” value is given as “maximum at the end of two hours; also recorded: maximum effect at two hours”. Further, the “stability towards adenosine deaminase (inferred from long duration of action)” value in [5] (inferred in vivo) is recorded as “not destroyed by the adenosine deaminase”. The “concentrations of fatty acids, triglycerides, total cholesterol and phospholipides” value in [5] (kinetic study) is “significant decrease”. Moreover, in data set [6], the “action on the activity of the HMG CoA reductase” value is listed as “no action”. Further, the “hypolipemia (reduction of fatty acids, phospholipides, triglycerides and cholesterol)” value in [7] is on record as “causes a hypolipemia”. The “concentration of plasma triglycerides, total cholesterol, fatty acids and phospholipides” value in data set [8] (3 mg/kg iv, two hours after the injection, 3 mg/kg) is on record as “significant decrease”. Besides, the “plasma concentrations of fatty acids, phospholipides, triglycerides and total cholesterol, dose dependence” value in data set [8] (intravenous administration) was “decrease, as a function of the doses”. Moreover, the “cholesterol and triglyceride concentrations of the high density lipoproteins (HDL)” value in [8] (route not specified) is reported as “No action”. In addition, in data set [9] (rabbits n = 7, 2 hours after Agr 529 2 mg/kg iv, before Triton), the “Triglycerides time = 2” value was 3.19 ± 0.38 mmol/L. For the same compound, in [9] (rabbits n = 7, 2 hours after second Agr 529 2 mg/kg iv + Triton 600 mg/kg iv), the “Triglycerides time = 4” value is 4.65 ± 0.44 mmol/L. In data set [9] (rabbits, Agr 529 2 mg/kg iv, control increase 196.5%), the “increase of the triglycerides caused by Triton” value was 45%. In addition, the “Triglycerides time = 0” value in data set [9] (rabbits, test lot n = 7, time = 0, before first injection of Agr 529 2 mg/kg iv) is 1.95 ± 0.34 mmol/L. The “concentration of triglycerides less than the Triton controls” value in data set [9] (rabbits, time 4, Agr 529 2 mg/kg iv) amounted to 150%.

`CCC(=O)OC[C@H]1O[C@@H](n2cnc3c(NCCCC(N)=O)ncnc32)[C@H](OC(=O)CC)[C@@H]1OC(=O)CC` [Agr 540, 6-(3-carboxamido-propylamino)-9-(2', 3', 5', tripropionyl-β-D-ribosyl) purine]: the “absorption per os relative to Agr 529” value in data set [10] is given as “better absorbed per os”. Besides, the Triglycerides in [3] (rats n = 6, first Agr 540 column, head prints 30 mg/kg P.O. + Triton 600 mg/kg iv) was determined as 5.65 ± 0.46 mmols/liter; in data set [3] (setting [11]) it was 3.67 ± 0.59 mmols/liter. Further, in data set [3] (rats), the triglycerides plasma concentrations entry is “return the triglycerides plasma concentrations to normal”. The “action on the increase in the circulating triglycerides” value in [3] (rats) is given as “significantly oppose the increase in the circulating triglycerides”. Further, the “hypolipemia (reduction of fatty acids, phospholipides, triglycerides and cholesterol)” value in [7] is “causes a hypolipemia”.
